Assay results: article PMC12621043, “Un-LOK-ing a New Approach for Conformational Selective Targeting of STK10 (LOK)” (ACS Medicinal Chemistry Letters, 2025)

What was measured:
Test in all cases: DSF Tm panel
Type in all cases: binding
Settings in all cases: 10 μM compound
UKL3A (ULK3A) = molecular target: T1, UKL3A (ULK3A) (Homo sapiens, UniProt Q6PHR2)
T1 construct: purchased in-house DSF kinase panel (SGC-style construct names; the trailing letter is the construct ID)
T1 sequence (Q6PHR2 1-279): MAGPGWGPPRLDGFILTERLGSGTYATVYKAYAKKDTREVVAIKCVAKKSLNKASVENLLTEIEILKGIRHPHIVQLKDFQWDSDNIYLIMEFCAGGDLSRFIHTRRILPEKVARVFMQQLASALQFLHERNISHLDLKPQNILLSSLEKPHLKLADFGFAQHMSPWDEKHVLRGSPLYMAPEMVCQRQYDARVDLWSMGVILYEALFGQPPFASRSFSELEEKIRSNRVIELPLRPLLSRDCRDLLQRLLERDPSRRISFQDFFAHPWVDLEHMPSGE

TOPKA = molecular target: T2, TOPKA (Homo sapiens, UniProt Q96KB5)
T2 construct: purchased in-house DSF kinase panel (SGC-style construct names; the trailing letter is the construct ID)
T2 sequence (Q96KB5 1-322): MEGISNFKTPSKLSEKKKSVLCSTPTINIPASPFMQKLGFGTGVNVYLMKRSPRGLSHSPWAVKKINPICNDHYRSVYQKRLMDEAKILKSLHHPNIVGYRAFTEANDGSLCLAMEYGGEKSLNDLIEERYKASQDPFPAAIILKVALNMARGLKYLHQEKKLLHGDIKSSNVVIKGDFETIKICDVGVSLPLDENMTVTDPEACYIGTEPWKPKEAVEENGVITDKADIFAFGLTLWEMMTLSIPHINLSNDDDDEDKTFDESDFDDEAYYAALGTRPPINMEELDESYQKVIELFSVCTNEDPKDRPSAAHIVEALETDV

RPS6KA6A = test system: RPS6KA6A
STK38LA = molecular target: T3, STK38LA (Homo sapiens, UniProt Q9Y2H1)
T3 construct: purchased in-house DSF kinase panel (SGC-style construct names; the trailing letter is the construct ID)
T3 sequence (Q9Y2H1 90-453): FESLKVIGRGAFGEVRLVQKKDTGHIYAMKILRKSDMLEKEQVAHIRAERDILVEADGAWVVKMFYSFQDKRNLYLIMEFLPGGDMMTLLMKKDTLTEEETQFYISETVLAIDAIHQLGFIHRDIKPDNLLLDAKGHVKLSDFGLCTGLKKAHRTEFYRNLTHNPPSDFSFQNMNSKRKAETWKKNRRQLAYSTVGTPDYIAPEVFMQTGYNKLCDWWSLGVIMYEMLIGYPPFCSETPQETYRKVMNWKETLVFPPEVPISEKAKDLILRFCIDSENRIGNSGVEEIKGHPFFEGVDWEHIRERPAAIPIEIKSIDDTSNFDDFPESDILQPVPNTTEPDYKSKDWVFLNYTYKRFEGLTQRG

MAP2K7A = molecular target: T4, MAP2K7A (Homo sapiens, UniProt O14733)
T4 construct: purchased in-house DSF kinase panel (SGC-style construct names; the trailing letter is the construct ID)
T4 sequence (O14733 120-400): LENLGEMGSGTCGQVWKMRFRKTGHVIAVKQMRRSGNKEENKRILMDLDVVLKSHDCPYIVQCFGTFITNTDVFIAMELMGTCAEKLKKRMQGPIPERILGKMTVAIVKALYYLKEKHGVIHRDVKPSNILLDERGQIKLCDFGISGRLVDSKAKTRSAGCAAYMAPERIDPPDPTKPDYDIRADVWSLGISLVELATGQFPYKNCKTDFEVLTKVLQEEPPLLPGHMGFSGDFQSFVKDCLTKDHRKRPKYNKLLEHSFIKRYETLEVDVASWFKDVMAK

TLK1A = molecular target: T5, TLK1A (Homo sapiens, UniProt Q9UKI8)
T5 construct: purchased in-house DSF kinase panel (SGC-style construct names; the trailing letter is the construct ID)
T5 sequence (Q9UKI8 456-734): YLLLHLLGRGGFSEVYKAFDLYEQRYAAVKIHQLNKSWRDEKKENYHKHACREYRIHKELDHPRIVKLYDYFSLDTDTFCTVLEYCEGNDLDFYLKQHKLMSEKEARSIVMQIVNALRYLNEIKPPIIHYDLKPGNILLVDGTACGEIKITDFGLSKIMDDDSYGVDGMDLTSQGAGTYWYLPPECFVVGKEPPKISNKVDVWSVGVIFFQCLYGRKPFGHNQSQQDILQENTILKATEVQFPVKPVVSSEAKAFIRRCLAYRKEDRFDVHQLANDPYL

SMILES	ΔTm at 10 µM (UKL3A (ULK3A)) [°C]	ΔTm at 10 µM (TOPKA) [°C]	ΔTm RPS6KA6A (RPS6KA6A)	ΔTm at 10 µM (STK38LA) [°C]	ΔTm at 10 µM (MAP2K7A) [°C]	ΔTm at 10 µM (TLK1A) [°C]
O=C(NCc1ccccc1)Nc1ccc2cc1OCCOCCNc1ccn3ncc-2c3n1 [compound 16]	6.8	0.4	-1,2 °C	0.8		
O=C(NCc1ccccc1Cl)Nc1ccc2cc1OCCOCCNc1ccn3ncc-2c3n1 [compound 17]	3.2	0.4	-0,3 °C	0.7		
O=C(NCc1cccc(Cl)c1)Nc1ccc2cc1OCCOCCNc1ccn3ncc-2c3n1 [compound 18]	4.6	0.5	-0,3 °C	1.1		
O=C(NCc1ccc(Cl)cc1)Nc1ccc2cc1OCCOCCNc1ccn3ncc-2c3n1 [compound 19]	4.6	0.2	-0,2 °C	0.6		
O=C(NCc1ccc(Cl)cc1Cl)Nc1ccc2cc1OCCOCCNc1ccn3ncc-2c3n1 [compound 20]	2.3	1.2	0,5 °C	0.7		
O=C(NCc1ccc(Cl)cc1F)Nc1ccc2cc1OCCOCCNc1ccn3ncc-2c3n1 [compound 21]	4.6	0.6	-0,7 °C	1.2		
Cc1cc(Cl)ccc1CNC(=O)Nc1ccc2cc1OCCOCCNc1ccn3ncc-2c3n1 [compound 23]	3.7	1.5	-0,3 °C	1.7		
Cc1cc(Br)ccc1CNC(=O)Nc1ccc2cc1OCCOCCNc1ccn3ncc-2c3n1 [compound 24]	3.7				0.3	1
Cc1ccc(F)cc1CNC(=O)Nc1ccc2cc1OCCOCCNc1ccn3ncc-2c3n1 [compound 26]	3.9				0.1	0.9
O=C(NCc1ccccc1C(F)(F)F)Nc1ccc2cc1OCCOCCNc1ccn3ncc-2c3n1 [compound 27]	4.5				1	1.3
O=C(NCc1ccc(C(F)(F)F)cc1)Nc1ccc2cc1OCCOCCNc1ccn3ncc-2c3n1 [compound 28]	4.3				1.1	1.6
COc1ccccc1CNC(=O)Nc1ccc2cc1OCCOCCNc1ccn3ncc-2c3n1 [compound 29]	4.2				0.1	0.4
COc1cccc(CNC(=O)Nc2ccc3cc2OCCOCCNc2ccn4ncc-3c4n2)c1 [compound 30]	4.4				0.1	0.7
COc1ccc(CNC(=O)Nc2ccc3cc2OCCOCCNc2ccn4ncc-3c4n2)cc1 [compound 31]	6.1				0.5	1.1
COc1ccc(CNC(=O)Nc2ccc3cc2OCCOCCNc2ccn4ncc-3c4n2)cc1F [compound 32]	5.9				0.5	1.2
COc1cc(CNC(=O)Nc2ccc3cc2OCCOCCNc2ccn4ncc-3c4n2)ccc1F [compound 33]	4.5				0	0.9
C[C@H](NC(=O)Nc1ccc2cc1OCCOCCNc1ccn3ncc-2c3n1)c1ccccc1 [compound 34]	4.1				0	0.4
CN1CCN(C(=O)Nc2ccc3cc2OCCOCCNc2ccn4ncc-3c4n2)CC1 [compound 35]	2.7	-0.4	-0,3 °C	0.4		
